According to publication PMC11395145, “The Archetypal Gamma-Core Motif of Antimicrobial Cys-Rich Peptides Inhibits H^+-ATPases in Target Pathogens” (International Journal of Molecular Sciences, 2024):

Legend:
C. albicans cells [1] = assay: Oxygen consumption measurement (Clark-type electrode); format: cell-based, Candida albicans; details: 5 × 10^6 cells/mL, peptides at IC50, piericidin A 32 μM, at least 30 min, 25 °C
Procedure: (§1) Figure 3 Effect of cellular respiration on the microbicidal activity of hLf γ-core-containing peptides. (A,C) Oxygen consumption was measured in C. albicans and P. aeruginosa cellular suspensions in the absence (control) or the presence of kaliocin-1 (Kal-1), Kdp15, or human lactoferrin (hLf), and piericidin A (positive control). (B,D) Effect of cellular respiration on the microbicidal activity of hLf γ-core-containing peptides. Cells (10^6 cells/mL) were pre-incubated (15 min, 37 °C) with 32 μM piericidin A and incubated for 90 min at 37 °C with the peptides hLf or BM2. The cell viability was determined by means of the plate counting method. The results are the mean ± SD from duplicates of at least three independent experiments. * p < 0.05, ** p < 0.01, and *** p < 0.001 were used.
(§2) C. albicans or P. aeruginosa cells were grown to the mid-logarithmic phase, washed twice in Tris buffer, and resuspended in the same buffer, as described in [9, 10]. Briefly, cells (5 × 10^6 cells/mL) were pre-incubated for 15 min at 37 °C with the peptides (IC50). […] Oxygen consumption was measured using a Clark-type oxygen electrode (Dual digital-model 20, Rank Brothers Ltd., Cambridge, UK) in a closed jacketed chamber maintained at 25 °C. […] The viability of the cells was determined at 30 min by removing aliquots from the oxygen chambers and plating the subsequent dilutions on SDA or TSA plates.

C. albicans cells [2] = assay: Measurement of intracellular ATP (BacTiter-Glo); format: cell-based, Candida albicans; details: C. albicans 10^6 cells/mL, candidacidal concentration, 90 min, 37 °C; BM2 0.25 μM
Procedure: Total ATP was measured by using the BacTiter-Glo^TM Microbial Cell Viability Assay (Promega Co., Madison, WI, USA) according to the manufacturer’s instructions. […] Aliquots (100 μL) were incubated (90 min at 37 °C) with kaliocin-1, Kdp15, or human lactoferrin and the BM2 peptide (positive control). One hundred microliters of incubation mix was transferred into a 96-well opaque white plate, mixed with an equal volume of the BacTiter-Glo reagent, and incubated for 15 min in the dark. The reagent used a thermostable luciferase to produce luminescence in an ATP-dependent manner. The emitted luminescence was detected by using a Varioskan Flash multimode reader (Thermo Scientific, Waltham, MA, USA) with a 10 s of shaking and 1 s integration time. A calibration curve was prepared for each experiment, with ATP standards ranging from 1 to 1000 nM. For assays performed in the presence of the BM2 peptide, samples were preincubated with 0.25 μM BM2 for 30 min at 37 °C. All the tests were performed in triplicate at least four times.

[3] = tested on: Candida albicans ATCC 10231; assay: Microbicidal (spread-plate cell viability) assay, candidacidal activity; format: cell-based; details: for IC50: 90 min, 37 °C, 10 mM Tris-HCl pH 7.4, 10^6 cells/mL, CFU plating, estimated, read-out: IC50 (concentration that caused 50% reduction in viable counts) against C. albicans; for effect of high external K^+ on candidacidal activity: Tris buffer with 50 mM KCl vs without
Procedure: (§3) First, we tested the antimicrobial activity of Kal-1 and a shorter Kal-1-derived peptide (Kdp15), both containing the complete γ-core signature of human lactoferrin, against C. albicans and P. aeruginosa. Microbicidal (cidal) activity was determined after 90 min of incubation (37 °C; pH 7.4) with a range of concentrations of each hLf-derived peptide.
(§4) Figure 1 Cell viability and membrane permeabilization assays. C. albicans or P. aeruginosa (10^6 cells/mL) were incubated (90 min, 37 °C) with each peptide/protein at the indicated concentrations. Aliquots were plated on SDA or […], and colonies were counted after 24–48 h (C. albicans) or 24 h (P. aeruginosa). At each point, samples were stained with propidium iodide (PI) and intracellular PI incorporation, indicative of membrane permeabilization, was quantified by flow cytometry. The relative cell viability (blue lines) and cellular permeabilization (red lines) were calculated as the percentage of untreated cells. Human lactoferrin (hLf) and the peptide Lfpep were used as negative and positive controls of cellular permeabilization, respectively.
(§5) Microbial susceptibility to the peptides was determined in a spread-plate assay as described previously. Briefly, two-fold serially diluted peptides were incubated (37 °C) with approximately 10^6 cells/mL in Tris buffer (10 mM Tris-HCl, pH 7.4). After 90 min of incubation with the peptides, aliquots were removed and plated in duplicate on an appropriate agar plate for each species (SDA for C. albicans, TSA for P. aeruginosa). The plates were incubated for 24–48 h at 30 °C (C. albicans) or 24 h at 37 °C (P. aeruginosa) for enumeration. The cell viability values, expressed as colony forming units (CFUs), were determined relative to incubation without added peptides and represent the mean ± standard deviation (±SD) of at least three independent determinations. For inhibition assays, the cell suspensions were preincubated (15 min at 37 °C) with the corresponding inhibitors before the addition of peptides. Water-insoluble inhibitors were prepared in DMSO, such that the final assay volume was ≤1%. Other specific experimental inhibition conditions are described where appropriate. The IC50 value is expressed as the concentration that caused 50% reduction in viable counts.

P. aeruginosa cells [4] = assay: Cell membrane permeability assay (propidium iodide, flow cytometry); format: cell-based, Pseudomonas aeruginosa; details: 90 min, 37 °C, range of concentrations, PI 9 μM
Procedure: (§6) To determine whether Kal-1 and Kdp15 exert a permeabilizing effect on fungal or bacterial membranes, the cellular influx of the fluorescent nucleic-acid-binding dye propidium iodide (PI) was assessed. As PI itself cannot permeate through an intact phospholipid bilayer, only permeabilized cells take up PI, resulting in DNA intercalation and fluorescence.
(§7) Flow cytometry was used to assess the ability of peptides to permeabilize plasma membranes of cells in incorporation of the DNA intercalating dye propidium iodide (PI). C. albicans or P. aeruginosa cells (10^6 cells/mL) in Tris buffer were incubated with two-fold serially diluted peptides for 90 min at 37 °C and subsequently reincubated with PI (9 μM, final concentration) for 5 min. The suspensions were centrifuged at 1100× g for 10 min and subsequently washed with Tris buffer to remove any unbound PI. The peptide Lfpep was used to disrupt the cytoplasmic membrane (positive control). Cell fluorescence was monitored using a Cytomics FC500 Flow Cytometer (Beckman Coulter Life Sciences, Indianapolis, IN, USA). The PI fluorescence was excited at a wavelength of 488 nm and emission was registered at 610 nm. For each treatment, 20,000 events were measured. Data were acquired and analyzed using CytExpert 2.1 software. Results were expressed as the percentage of PI-positive cells with respect to the unstained cells (control). […]

[5] = tested on: Pseudomonas aeruginosa 10145 (PAO1); assay: Microbicidal (spread-plate cell viability) assay, pseudomonacidal activity; format: cell-based; details: for IC50: 90 min, 37 °C, 10 mM Tris-HCl pH 7.4, 10^6 cells/mL, CFU plating, read-out: IC50 (concentration that caused 50% reduction in viable counts) against P. aeruginosa; for effect of high external K^+ on pseudomonacidal activity: Tris buffer with 50 mM KCl vs without
Procedure: as §3, §4, §5

Pma1p H^+-ATPase = Pma1p H^+-ATPase (Candida albicans, UniProt P28877); details: starved C. albicans 10^7 cells/mL in 50 mM KCl, pre-incubated with peptide 2 × IC50, 2.5 mM glucose; control ~1.3 pH units
Procedure: C. albicans cells (10^7 cells/mL) in 50 mM KCl were preincubated with the peptides (2 × IC50) for 20 min. Glucose (final concentration of 2.5 mM) was then added to induce H^+ efflux via Pma1p H^+-ATPase, as indicated by the subsequent external acidification.
To measure the proton pumping activity of Pma1p H^+-ATPase, a glucose-induced acidification assay of the medium was performed as previously described [10]. Briefly, cultures of C. albicans cells were grown to the mid-log phase in SDB medium and washed twice in Tris buffer (pH 8.0). The cells were resuspended in 50 mM KCl and maintained for 18 h at 4 °C to reduce metabolic activity to a minimum (starvation conditions). To determine the external acidification, starved cells (~10^7 cells/mL) were incubated for 15 min at 30 °C in the absence or the presence of the peptides (2 × IC50). Human lactoferrin (20 μM) was used as a positive control. The initial pH of cellular suspension was adjusted with HCl to pH 6.6 (approx.) and glucose was immediately added (final concentration, 2.5 mM) to the cellular suspension. The pH of the medium was recorded at 1 min intervals for 20 min using a SevenMulti S50-K pH meter (Mettler-Toledo, Greifensee, Switzerland) with a calibrated electrode (InLab 413, Mettler-Toledo) with constant stirring. Every experiment was performed using two replicates and repeated independently three times.

C. albicans cells [6] = assay: Cell membrane permeability assay (propidium iodide, flow cytometry); format: cell-based, Candida albicans; details: 90 min, 37 °C, range of concentrations, PI 9 μM
Procedure: as §6, §7

P. aeruginosa cells [7] = assay: Oxygen consumption measurement (Clark-type electrode); format: cell-based, Pseudomonas aeruginosa; details: 5 × 10^6 cells/mL, peptides at IC50, piericidin A 32 μM, at least 30 min, 25 °C
Procedure: as §1, §2

[8] = tested on: Candida albicans ATCC 10231; details: used in control assays; cited from earlier work
Procedure: as §3, with “peptide. The hLf γ-core-containing peptides were microbicidal in a concentration-dependent way (Figure 1). […] The IC50 es ...” for “peptide.”

C. albicans cells [9] = assay: Extracellular potassium measurement (K+ efflux, ICP-OES); format: cell-based, Candida albicans; details: 10^7 cells/mL, peptides 2 × IC50, 37 °C
Procedure: (§8) Figure 2 Potassium efflux induced by hLf γ-core-containing peptides. (A,D) Kinetics of K^+ efflux. C. albicans or P. aeruginosa (10^7 cells/mL) were incubated with kaliocin-1, Kdp15, human lactoferrin (hLf), and Lfpep. hLf and Lfpep were used as negative and positive controls of the membrane permeabilization, respectively. The effect of antifungal BM2 peptide was evaluated. The extracellular K^+ concentration was quantified at different times. (B,C,E) Effect of extracellular K^+ and TEA^+ on microbicidal activity. (B,E) microbicidal activity was assessed in Tris buffer in the absence or in the presence of 50 mM KCl or (C) 10 mM TEA^+. Cell viability was determined by plating aliquots of the cell suspensions. The percentage of viable cells was determined relative to that for cells incubated without peptides (control). […]
(§9) Measurements of potassium were performed using inductively coupled plasma optical emission spectrometry (ICP-OES) with a Perkin-Elmer Optima 2000 DV spectrometer. […] The percentage of cytosolic K^+ released from cell suspensions treated with Lfpep was determined in positive control assays. The total cellular K^+ content (100% value) was measured in the supernatant of cellular suspensions previously treated only with 0.5% (v/v) HClO4, heated for 1 h at 95 °C, and centrifuged to remove cell debris. […]

P. aeruginosa cells [10] = assay: as above; format: cell-based, Pseudomonas aeruginosa; details: 10^7 cells/mL, peptides 2 × IC50, 37 °C
Procedure: as §8, §9

[11] = cells pre-incubated 15 min, 37 °C with 32 μM piericidin A, then 90 min with peptide

Pma1p H^+-ATPase, sequence (P28877 whole entry): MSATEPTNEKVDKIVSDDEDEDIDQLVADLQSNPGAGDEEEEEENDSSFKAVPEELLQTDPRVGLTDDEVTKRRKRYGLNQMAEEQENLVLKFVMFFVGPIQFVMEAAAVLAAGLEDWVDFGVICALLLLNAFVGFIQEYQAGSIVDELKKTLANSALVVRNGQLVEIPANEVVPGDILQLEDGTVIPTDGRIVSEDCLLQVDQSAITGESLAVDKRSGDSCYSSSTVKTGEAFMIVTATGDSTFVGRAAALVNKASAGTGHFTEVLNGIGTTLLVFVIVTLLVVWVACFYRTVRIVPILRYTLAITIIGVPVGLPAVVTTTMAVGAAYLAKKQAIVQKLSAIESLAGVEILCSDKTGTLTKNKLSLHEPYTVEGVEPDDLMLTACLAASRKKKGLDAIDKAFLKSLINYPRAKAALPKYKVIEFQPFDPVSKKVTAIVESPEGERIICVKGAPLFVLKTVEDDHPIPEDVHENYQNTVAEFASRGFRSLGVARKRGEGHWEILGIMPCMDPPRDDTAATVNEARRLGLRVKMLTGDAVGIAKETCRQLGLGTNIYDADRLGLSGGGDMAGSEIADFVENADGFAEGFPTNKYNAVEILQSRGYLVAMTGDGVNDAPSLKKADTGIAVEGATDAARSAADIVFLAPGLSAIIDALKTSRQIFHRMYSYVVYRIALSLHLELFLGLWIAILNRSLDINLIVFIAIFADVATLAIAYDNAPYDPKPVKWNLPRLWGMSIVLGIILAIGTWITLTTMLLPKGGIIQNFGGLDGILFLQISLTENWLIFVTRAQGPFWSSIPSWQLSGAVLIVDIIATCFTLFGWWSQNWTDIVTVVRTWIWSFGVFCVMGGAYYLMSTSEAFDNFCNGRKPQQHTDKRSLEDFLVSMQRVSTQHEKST

| Sequence | oxygen consumption of C. albicans in presence of the substance (C. albicans cells [1]) | increment in intracellular ATP (iATP) level compared to untreated control (C. albicans cells [2]) | IC50 [3] [µM] | effect of high external K^+ on candidacidal activity [3] | effect of mitochondrial ATP synthase inhibition (oligomycin A) on candidacidal activity ([3]; cells pre-incubated 15 min, 37 °C with 16 μg/mL oligomycin A) | effect of respiration inhibition (piericidin A) on candidacidal activity [3, 11] | effect of Tok1p K^+ channel block (TEA^+) on candidacidal activity ([3]; cells pre-incubated 15 min with 10 mM TEA^+) | IC50 against C. albicans relative to IC50 of native hLf (fold greater) ([3]; vs hLf IC50 3 μM) [fold] | PI fluorescent cells (plasma membrane permeabilization), P. aeruginosa (P. aeruginosa cells [4]) | IC50 [5] [µM] | effect of high external K^+ on pseudomonacidal activity [5] | effect of respiration inhibition (piericidin A) on pseudomonacidal activity [5, 11] | decrease of external pH after 20 min (glucose-induced acidification) (Pma1p H^+-ATPase) | PI fluorescent cells (plasma membrane permeabilization), C. albicans (C. albicans cells [6]) | oxygen consumption of P. aeruginosa in presence of the substance (P. aeruginosa cells [7]) | previously reported microbicidal concentration (organism not given) [8] [µM] | K^+ efflux from C. albicans, in words (C. albicans cells [9]) | K^+ efflux from P. aeruginosa, in words (P. aeruginosa cells [10]) |
| --- | --- | --- | --- | --- | --- | --- | --- | --- | --- | --- | --- | --- | --- | --- | --- | --- | --- | --- |
| NLCRLCAGTGENKCA [Kdp15, 15-mer kaliocin-1-derived peptide containing the complete hLf γ-core] | equal to that of untreated (control) cells | ~ 5 fold | 100 | seemed to protect | less susceptible | less susceptible | less susceptible | ~33 | not significantly increased | 3 | seemed to protect | less susceptible | approximately 0.5 pH units | not significantly increased | equal to that of untreated (control) cells |  |  |  |
| TKCFQWQRNMRKVRGPPVSCIKR [Lfpep, antimicrobial hLf-derived peptide without a γ-core motif that permeabilizes bacterial and fungal cytoplasmic membranes, reference compound] |  |  | 20 | not modified |  |  |  |  | significant increase | 0.5 | not modified |  |  | significant increase |  | 50 | rapid and increased K^+ release | rapid and increased K^+ release |
